Results as given in patent publication US20040077709A1, “Neuronal death inhibitors” (DAIICHI PHARMACEUTICAL CO., LTD., priority 1999, published 2004).

How the values were obtained:
[1] = tested on: male mice; details: oral; cited from earlier work
[2] = tested on: EL mice (EL[s]); assay: DNA fragmentation (TdT labeling) in brain sections of EL mice after oral nefiracetam; assay type: in vivo; details: EL[s] mice aged 30 weeks, 10 mg/kg oral once a day
From the text: Employed were three groups each constituting 6 mice aged 30 weeks, that is, EL mice (EL[s]) given an epileptogenic stimulus once a week and thus having a low threshold, EL mice (EL[ns]) not given an epileptogenic stimulus and free from epileptic seizure at least during observation and DDY mice as a control. Each group was compared with that consisting of 40 to 50 week old mice in order to omit the influence of aging. A section of 10 μm was fixed to a gelatin-coated sliding glass in a cryostat, followed by permeabilization with 0.1% sodium citrate and 0.1% Triton X-100 at 4° C. for 5 minutes. DNA fragmentation was detected by polymerizing a fluorescein-labeled nucleotide with the 3′-OH ends of the cleaved DNA by using terminal transferase (TdT). Reaction with an anti-fluorescein antibody conjugated with peroxidase (PD) or alkali phosphatase (AP) developed color, thereby enabling detection by an optical microscope. As a negative control, TdT(−) and as a positive control, a sample treated with DNAaseI were employed. Nefiracetam was orally administered to the test group (aged 30 weeks, EL[s]) once (10 mg/kg) a day. While thus controlling the occurrence of epileptic seizure, a relationship between the nefiracetam administration terms (1, 3, 5 and 7 days) and appearing frequency of DNA fragmentation was observed.
As a result, DNA fragmentation was detected from neither DDY mice aged 30 weeks (adult) nor those aged 40 weeks (having an influence of aging) which served as a negative control. In the EL mice (EL[s]) having epileptic seizure, whether they were aged 30 weeks or 40 weeks, DNA fragmentation was recognized from their hippocampus and parietal cortex. In the EL mice (El[ns]) free from epileptic seizure, whether they were aged 30 weeks or 40 weeks, DNA fragmentation was recognized in only a narrower region at a lower frequency than the EL[s]. In their hippocampus, no DNA fragmentation was recognized.
EL mice serve as a model of the region-specific secondary generalized epilepsy. Although having no severe tissue injury, they are known for accelerated production of free radicals in the hippocampus and parietal cortex constituting a partial complex seizure, a rise in NO and site-specific expression of the immediately early genes (c-fos, zif) during an epileptogenicity acquiring procedure.

[3] = five days after the administration, FIG. 2
[4] = single administration (one day), FIG. 1

Structure (SMILES): Cc1cccc(C)c1NC(=O)CN1CCCC1=O [nefiracetam, 2-oxo-1-pyrrolidinylacetic acid 2,6-dimethylanilide]
- acute toxicity [1]: 2,005 mg/kg
- DNA fragmentation in the hippocampus [2, 3]: disappeared
- DNA fragmentation in the parietal cortex [2, 3]: no change
- DNA fragmentation in the hippocampus [2, 4]: recognized
- DNA fragmentation in the parietal cortex [2, 4]: recognized
